Assay results taken from patent US12642808B2, “Methods of inhibiting Klebsiella pneumoniae carbapenemase-2” (priority 2023, dated 2026).
Where two headings read alike, the source gives them in different places.

How the values were obtained:
KPC-2 enzyme = KPC-2 enzyme (Klebsiella pneumoniae, UniProt Q9F663); experiment: Enzyme activity determination (nitrocefin hydrolysis); format: biochemical
Description: Enzyme activity was measured using a Shimadzu UV-1900i spectrophotometer in 50 mM phosphate buffer (pH 7.0) to measure the inhibitory effect. The total enzyme activity reaction system is 500 μL. The reaction temperature was set to 37° C., and 0.3 nM KPC-2 enzyme was pre-incubated with different concentrations of AN2718 in phosphate buffer (pH 7.0) for 5 minutes before adding 60 μL nitrocefin. Measure the hydrolysis inhibition effect of AN2718 on nitrocefin by detect change of absorbance. The 50% inhibition concentration is determined by the inhibition curve of the control activity percentage and inhibitor concentration. Repeat the experiment three times.

Hvkp2 strain = experiment: Treatment of mice infected with Hvkp2 strain; format: in vivo, ICR mice; details: monotherapy 16 mg/kg; for survival rate: after 24 hours of Hvkp2 infection, mice
Description: The experiment was conducted on mice infected with Hvkp2 strain for treatment. A total of 35 male ICR mice of SPF grade at four weeks old were selected and divided into seven groups. The […] were set as the saline control group, AN2718 monotherapy group (16 mg/kg), Meropenem monotherapy group (16 mg/kg), AN2718/Meropenem combination group 1 (8 mg/kg+8 mg/kg), AN2718/Meropenem combination group 2 (8 mg/kg+16 mg/kg), AN2718/Meropenem combination group 3 (16 mg/kg+8 mg/kg) and AN2718/Meropenem combination group 4 ([…]), respectively. First, incubate Hvkp2 overnight at 37° C., activate it, and resuspend it with physiological saline. Adjust the bacterial concentration to approximately 1×10^6 CFU/mL, spare. […]. Inject saline or medication 1 hours after infection. After 12 hours, the second dose of medication was administered for treatment, with a total of five injections and a time interval of 12 hours between each injection. Observe and count the survival status of each group of mice during the experiment.
This experiment used SPSS 20.0 software to statistically process and analyze the data represented by (X±SD). Multiple comparisons and one-way ANOVA were used to analyze and compare the data of each group. (P<0.05 indicates a significant difference, and P<0.01 indicates a highly significant difference).

KPC-93 = KPC-93 (Klebsiella pneumoniae, UniProt Q9F663); experiment: Enzyme activity determination (nitrocefin hydrolysis); format: biochemical; details: read-out: semi-inhibitory concentration IC50 for KPC-93
KPC-41 = KPC-41 (Klebsiella pneumoniae, UniProt Q9F663); experiment: as above; format: biochemical; details: read-out: semi-inhibitory concentration IC50 on KPC-41
KPC-74T [1] = experiment: Time sterilization (time-killing) curve; format: cell-based, Escherichia coli
From the text: (§1) KPC-74T, carrying Escherichia coli containing KPC-2 plasmid, constructed by the laboratory; Hvkp, obtained through laboratory isolation; AN2718 purchased from Target Mol Technology Co., Ltd; BBLTM Mueller Hinton II Broth was purchased from BD Company in the United States; Meropenem was purchased from Meilun Biotechnology Co., Ltd; LB Broth was purchased from Qingdao High tech Industrial Park Haibo Biotechnology Co., Ltd; Enzyme marker (UV1900i, Shimadzu company);
Inoculate overnight cultured bacterial KPC-74T in a 1:10000 ratio onto MHB medium and incubate at 225 rpm at 37° C. for 2 hours (early exponential growth phase) or 5 hours (late exponential growth phase). After incubation, add the corresponding concentration of AN2718 or Meropenem solution and incubate it at 37° C. and 225 rpm. Set the time point to 0, 1, 3, 5, 7, and 24 hours. At each time point, absorb 100 μL bacterial solution, centrifuged at 10000 g rotating speed for 1 min, resuspended with PBS, diluted in ten fold gradient, and absorbed 10 μL of each gradient drops onto MHA plate. Place the plates in a 37° C. incubator for 24 hours and remove them. Count each plate and calculate the total bacterial count. Repeat the experiment three times.

KPC-74T [2] = experiment: Chessboard minimum inhibitory concentration determination; format: cell-based, Escherichia coli; details: for MIC: Escherichia coli; for MIC value decreased: combined use of the two drugs versus alone
From the text: as §1
This study referenced the standards of the Clinical and Laboratory Standards Institute (CLSI) in the United States and the laboratory's previous improvement methods and measured partial inhibitory concentrations through a chessboard test. Firstly, KPC-74T was activated, inoculated on Lysogeny broth, and cultured overnight at 37° C. Add 100 μL MHB medium to each well in a sterile 96 well plate; Then add AN2718 solution 100 μL to the first line and perform gradient dilution along the vertical axis. Then, add Meropenem solution to the first column and dilute it in a gradient along the abscissa. Finally, in addition to the negative control, add 100 μL of bacterial suspension ≈1×10^6 CFUs mL^−1. After completing the above operations, place the 96 well plate in a 37° C. constant temperature incubator and incubate for 18 hours. Observe the bacterial solution of each well under appropriate light, and observe the drug concentration corresponding to the complete absence of bacterial growth wells, which is MIC. Determine synergistic effects by calculating FIC. FIC can be calculated according to formula (1): […]
MICa is a separate MIC of compound a; MICab is the MIC of compound a combined with compound b; MICb is a separate MIC of compound b; MICba is the MIC of compound b combined with compound a; FICa is the FIC of compound a; FICb is the FIC of compound b. According to the standard definition, FICI≤0.5 is defined as synergy; 0.5<FICI≤1 is defined as an additive; […] is defined as no difference; FICI>4 is defined as an antagonistic effect.

KPC-93, sequence (Q9F663 25-293 limits assumed): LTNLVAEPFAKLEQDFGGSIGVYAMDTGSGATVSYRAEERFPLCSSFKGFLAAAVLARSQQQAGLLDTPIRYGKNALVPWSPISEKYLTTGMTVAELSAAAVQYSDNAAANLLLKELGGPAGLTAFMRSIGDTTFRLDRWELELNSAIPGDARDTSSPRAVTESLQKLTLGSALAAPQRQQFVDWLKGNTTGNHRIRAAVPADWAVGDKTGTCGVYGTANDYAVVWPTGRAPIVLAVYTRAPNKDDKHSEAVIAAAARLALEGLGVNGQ
KPC-2 enzyme, sequence (Q9F663 25-293 limits assumed): as above
KPC-41, sequence (Q9F663 1-268, added parts left off, change not shown, form open): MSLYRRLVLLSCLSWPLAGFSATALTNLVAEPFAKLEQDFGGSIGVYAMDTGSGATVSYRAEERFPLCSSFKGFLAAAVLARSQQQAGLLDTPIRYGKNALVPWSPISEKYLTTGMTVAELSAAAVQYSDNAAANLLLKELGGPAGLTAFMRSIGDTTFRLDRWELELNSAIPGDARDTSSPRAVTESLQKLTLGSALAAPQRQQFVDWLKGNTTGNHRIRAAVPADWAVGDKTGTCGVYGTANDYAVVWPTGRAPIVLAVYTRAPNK

OB1OCc2cc(Cl)ccc21 [AN2718, 5-chloro-1,3-dihydro-1-hydroxy-2,1-benzoxaborole]
IC50 (KPC-2 enzyme): 499 nM
survival rate (Hvkp2 strain): 40%
survival rate versus Meropenem group (Hvkp2 strain; between 36h and 132h, mice infected with Hvkp2): significantly higher
IC50 (KPC-93): 116 nM
IC50 (KPC-41): 370000 nM
effect on the growth of KPC-74T (KPC-74T [1]; AN2718 single use, up to 160 μM (26.88 μg/mL), within 24 hours): has no effect on the growth of KPC-74T
MIC (KPC-74T [2]; 18 h, read-out: AN2718 S-MIC): 13.4 µg/mL
MIC value decreased (KPC-74T [2]; KPC-74T): four

C[C@@H](O)[C@H]1C(=O)N2C(C(=O)O)=C(S[C@@H]3CN[C@H](C(=O)N(C)C)C3)[C@H](C)[C@H]12 [Meropenem]
survival rate (Hvkp2 strain): 20%
killing of bacteria within 24 h (KPC-74T [1]; Meropenem 4 μg/mL and 8 μg/mL with AN2718 40 μM): could not kill all bacteria
killing of bacteria within 24 h (KPC-74T [1]; Meropenem 4 μg/mL with AN2718 80 μM): can kill most of the bacteria
killing of bacteria within 24 h (KPC-74T [1]; Meropenem 4 μg/mL with AN2718 160 μM): can kill all bacteria
killing of bacteria within 24 h (KPC-74T [1]; Meropenem 128 μg/mL with AN2718 20 μM): all bacteria can be killed
number of colonies versus control group (KPC-74T [1]; Meropenem alone 2 μg/mL˜64 μg/mL, at 24 hours): no significant difference
effect on the growth of KPC-74T (KPC-74T [1]; Meropenem alone 2 μg/mL˜64 μg/mL, first 5 hours): a certain inhibitory effect
effect on the growth of KPC-74T (KPC-74T [1]; Meropenem alone 128 μg/mL): significant inhibitory effect
killing of bacteria within 24 h (KPC-74T [1]; Meropenem alone 128 μg/mL): still cannot kill all bacteria
killing of bacteria within 24 h (KPC-74T [1]; Meropenem remaining concentrations (above 4 μg/mL) with AN2718 80 μM): can still kill all the bacteria
killing of bacteria within 24 h (KPC-74T [1]; Meropenem rest concentrations (above 8 μg/mL) with AN2718 40 μM): could still effectively kill bacteria
FICI (KPC-74T [2]; AN2718 in combination with Meropenem, KPC-74T): 0.25
Result (KPC-74T [2]; AN2718 in combination with Meropenem, KPC-74T, from FICI): synergy (FICI≤0.5 is defined as synergy)
MIC (KPC-74T [2]; read-out: Drug S-MIC): 64 µg/mL
MIC value decreased (KPC-74T [2]; KPC-74T): 1024 times
